Experimental data taken from patent publication US7442699B2, “Anilinopyrimidine derivatives as IKK inhibitors and compositions and methods related thereto” (Signal Pharmaceuticals, LLC, priority 2000, dated 2008).
Like-named read-outs stand apart in the source and are kept apart here.

Target: T1, IKK-2 (Homo sapiens, UniProt O14920, S177E/S181E)
T1 construct: His6
T1 sequence (O14920 1-756 S177E/S181E): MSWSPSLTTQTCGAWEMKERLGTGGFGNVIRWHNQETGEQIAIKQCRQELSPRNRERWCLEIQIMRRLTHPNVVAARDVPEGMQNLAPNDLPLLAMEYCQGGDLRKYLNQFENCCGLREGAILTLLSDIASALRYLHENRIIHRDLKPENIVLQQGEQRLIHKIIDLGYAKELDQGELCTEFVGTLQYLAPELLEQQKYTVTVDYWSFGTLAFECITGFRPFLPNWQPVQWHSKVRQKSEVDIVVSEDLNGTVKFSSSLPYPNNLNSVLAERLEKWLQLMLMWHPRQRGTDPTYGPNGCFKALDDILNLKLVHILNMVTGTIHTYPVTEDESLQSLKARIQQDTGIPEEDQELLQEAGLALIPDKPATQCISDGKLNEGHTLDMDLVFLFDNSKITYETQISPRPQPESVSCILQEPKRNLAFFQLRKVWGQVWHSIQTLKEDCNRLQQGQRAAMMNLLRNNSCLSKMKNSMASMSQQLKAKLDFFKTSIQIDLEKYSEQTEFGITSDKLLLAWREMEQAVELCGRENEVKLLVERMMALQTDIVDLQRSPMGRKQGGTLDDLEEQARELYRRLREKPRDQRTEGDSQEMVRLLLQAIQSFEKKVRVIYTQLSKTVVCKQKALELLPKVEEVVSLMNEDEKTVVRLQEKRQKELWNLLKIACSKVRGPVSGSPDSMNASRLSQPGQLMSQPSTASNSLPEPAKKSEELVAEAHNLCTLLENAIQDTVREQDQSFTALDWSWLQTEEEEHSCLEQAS
Test: IKK-2 Enzyme Assay
Type: biochemical
Description: The mixture is preincubated for 15 minutes at room temperature. […] After 30 minutes the precipitate is harvested onto a filter plate to which 50 μl of scintillation fluid is added and then quantified by a scintillation counter.

[1] = more preferred compounds, 500 nM or less, read-out: IC50 value in the IKK-2 Enzyme Assay
[2] = preferred compounds, 1 μM or less, read-out: IC50 value in the IKK-2 Enzyme Assay

| Compound | IC50 (IC50 value in the IKK-2 Enzyme Assay, more preferred compounds, 500 nM or less) [nM] | IC50 (IC50 value in the IKK-2 Enzyme Assay, preferred compounds, 1 μM or less) [nM] | IC50 [1] [nM] | IC50 [2] [nM] |
| --- | --- | --- | --- | --- |
| O=C(c1ccc(Nc2nccc(-c3ccc(Cl)cc3)n2)cc1)N1CCC2(CC1)OCCO2 [Compound 17-139] | ≤ 500 | ≤ 1000 |  |  |
| CC(C)NC(=O)CN1CCN(C(=O)c2ccc(Nc3nccc(-c4ccc(Cl)cc4)n3)cc2)CC1 [Compound 17-141] |  |  | ≤ 500 | ≤ 1000 |
| NC(=O)c1ccc(Nc2nccc(-c3ccc(SCCCO)cc3)n2)cc1 [Compound 3-14] |  |  | ≤ 500 | ≤ 1000 |
| O=C(c1ccc(Nc2nccc(-c3ccc(Cl)cc3)n2)cc1)N1CCN(CCO)CC1 [Compound 17-215] |  |  | ≤ 500 | ≤ 1000 |
| O=C(NCCCn1ccnc1)c1ccc(Nc2nccc(-c3ccc(Cl)cc3)n2)cc1 [Compound 17-21] |  |  |  | ≤ 1000 |
| O=C(c1ccc(Nc2nccc(-c3ccc(Cl)cc3)n2)cc1)N1CCN(c2ccccc2)CC1 [Compound 17-158] |  |  |  | ≤ 1000 |
| CC(=O)N(C)C1CCN(C(=O)c2ccc(Nc3nccc(-c4ccc(Cl)cc4)n3)cc2)C1 (stereo not shown) [Compound 17-163] |  |  | ≤ 500 | ≤ 1000 |
| NC(=O)c1ccc(Nc2nccc(-c3ccc(S(=O)(=O)c4ccccn4)cc3)n2)cc1 [Compound 3-9] |  |  |  | ≤ 1000 |
| O=C(c1ccc(Nc2nccc(-c3ccc(SCCCO)cc3)n2)cc1)N1CCN(C(=O)c2ccco2)CC1 [Compound 17-34] |  |  | ≤ 500 | ≤ 1000 |
| O=C(NCCCN1CCCC1=O)c1ccc(Nc2nccc(-c3ccc(Cl)cc3)n2)cc1 [Compound 17-54] |  |  |  | ≤ 1000 |
